From paper PMC6155852, “Oral Administration of the Japanese Traditional Medicine Keishibukuryogan-ka-yokuinin Decreases Reactive Oxygen Metabolites in Rat Plasma: Identification of Chemical Constituents Contributing to Antioxidant Activity” (Molecules : A Journal of Synthetic Chemistry and Natural …, 2017)
Where “and” joins values, the source holds several entries; their conditions need not be identical. Equal entries are not always repeated. Where two headings read alike, the source gives them in different places.

Assays:
[1] = Lipid hydroperoxide (LPO) generation assay (linoleic acid, Fenton reaction); type: biochemical
Procedure: Antioxidant assays using linoleic acid with a purity of 98.0% (Wako Pure Chemical Ind.) were performed using a described protocol with modifications. Briefly, 20 μL of 1% linoleic acid in methanol, 20 μL of 20 mmol/L ferrous chloride in water, 20 μL of test sample in DMSO, and 150 μL of a mixed solution (1:1) of methanol and 20 mmol/L phosphate buffer (pH 7.0) were added to 96-well polypropylene plates. After incubation at room temperature in the dark for 1 h, 10 μL of the reaction products were transferred to 200 μL of a methanol solution containing 39 mmol/L ammonium thiocyanate, 0.2 mmol/L ferrous chloride, and 0.01 mol/L hydrochloride. After incubation for 15 min, absorbance at 500 nm was measured using a microplate reader (Multiskan GO, Thermo Fisher Scientific Inc., Waltham, MA, USA). The concentration of lipid hydroperoxide (LPO) products was calculated conveniently using standard curves of serially-diluted linolein hydroperoxides (Cayman Chemical). The percentage of control was calculated using the following formula; (A − B)/(C − B) × 100, with A = test sample, B = linoleic acid alone, and C = vehicle control. Ascorbic acid was used as a reference agent.

[2] = ROS scavenging assay (hydrogen peroxide-dependent oxidation); type: biochemical; conditions: for IC50: concentration-dependency, Figure 4
Procedure: Hydrogen peroxide-dependent oxidation tests were performed using Oxiselect™ In Vitro ROS/RNS Assay kits (Cellbiolab Inc., San Diego, CA, USA) according to the manufacturer’s protocol. Briefly, a test sample was mixed with hydrogen peroxide (final concentration: 2.5 μmol/L) and incubated for 5 min. A fluorescent reaction was started by the addition of a fluorescent probe (dichrolodihydrofluorescin-DiOxyQ) at room temperature. After incubation for 15 min, relative fluorescent units (RFUs) were measured at […] using a fluorescent plate reader (Infinite M200; Tecan Trading AG, Männedorf, Switzerland). The percentage of control was calculated using the following formula; (A − B)/(C − B) × 100, with A = test sample, B = fluorescent probe alone, and C = vehicle control. (+)-Ascorbic acid was used as a reference agent.

[3] = Plasma pharmacokinetics of KBGY constituents in rats after single oral administration of KBGY; type: in vivo, rat
Procedure: KBGY prepared in water was administered orally to 16 h fasted rats at a dose of 2 g/10 mL/kg (n = 3). […] Plasma was obtained by centrifugation at 1700× g for 15 min at 4 °C and stored at −80 °C until analysis.
For quantification of the dicarboxylic acid, 50 µL of standard solution, 100 µL of acetic acid (2%, v/v), and 650 µL of ethyl acetate were added to 200 µL of plasma samples, followed by mixing and centrifugation (7000× g, 5 min). The supernatants were collected and dried with a centrifugal evaporator and concentration system (CC-105; TOMY SEIKO Co., Tokyo, Japan). The residue was dissolved with 100 µL acetonitrile and 50 µL BF3/butanol solution; the dissolved solution was incubated for 1 h at 60 °C. The reaction was terminated by the addition of 50 µL of water and hexane, 150 µL of a saturated solution of sodium chloride, and 400 µL of hexane. The solution was vortexed for 2 min, and the supernatant was obtained by centrifugation (7000× g, 5 min). Liquid–liquid extraction was repeated twice. The corrected supernatant was dried with the centrifugal evaporator and concentration system. The dried residue was dissolved in 100 µL of acetonitrile containing 1 µg/mL of o-terphenyl (Tokyo Chemical Ind. Co.) as an internal standard (IS). Five microliters of the solution was then injected into the GC/MS system.
For quantification of volatile organic compounds (cinnamaldehyde, methyl cinnamate, 2-methoxycinnamaldehyde, mandelonitrile, salicylaldehyde, eugenol, cinnamyl alcohol, and 3-phenylpropyl acetate), 25 µL of standard solution, 25 µL of 2 µg/mL of 1,4-dibromobenzene (Tokyo Chemical Ind. Co.) as IS, and 500 µL of acetonitrile were added to 200 µL of plasma samples, followed by mixing and centrifugation (7000× g, 5 min). Five microliters of the supernatant was then injected into the GC/MS system.
For quantification of other compounds, 25 µL of standard solution, 25 µL of 2 ng/mL of atropine sulfate monohydrate (Wako Pure Chemical Ind.) or niflumic acid (Sigma-Aldrich) as IS, and 750 µL of methanol were added to 200 µL of plasma samples, followed by mixing and centrifugation (7000× g, 5 min). The supernatant was obtained and dried with the centrifugal evaporator and concentration system after 150 µL of propylene glycol (1%, v/v) was added to the supernatant. The dried residue was then dissolved in 60 μL of the HPLC mobile phase for each analytical method, and a 10 or 20 μL portion was injected into the LC/MS/MS system.
Plasma pharmacokinetic data were analyzed by noncompartmental modeling using Phoenix WinNonlin (version 6.3, Certara L.P., St. Louis, MO, USA) to determine various pharmacokinetic constants, including the maximum concentration (Cmax), time to maximum concentration (tmax), apparent elimination half-life (t1/2), and area under the plasma concentration-time curve from zero to last observation time (AUC0–last). The t1/2 was divided by loge^2/ke, where ke was the terminal elimination (at least three data points on the descending linear limb) rate constant.

[4] = 10 μmol/L, more than 100% = no activity
[5] = 1 μmol/L, C.I. = complete inhibition
[6] = 10 μmol/L, C.I. = complete inhibition, more than 100% = no activity
[7] = rat plasma, single oral KBGY 2 g/kg
[8] = in vivo, rat plasma, single oral KBGY 2 g/kg, read-out: tmax

SMILES	Tmax ([3]; rat, in vivo, po, 2 g/kg)	AUC(0-t) ([3]; rat, in vivo, po, 2 g/kg)	Cmax ([3]; rat, in vivo, po, 2 g/kg)	half-life ([3]; rat, in vivo, po, 2 g/kg)	Antioxidant Activity (% of Control) LPO Generation [1, 4]	anti-ROS activity ([2]; 10 μmol/L)	Antioxidant Activity (% of Control) ROS Scavenge [2, 6]	other results
COc1cc(C(=O)O)cc(O)c1O [3-O-Methylgallic acid]	1 h	58.6 ng·h/mL	12.7 ng/mL and 69 nM	6.59 h	–	strong anti-ROS activity	C.I.	IC50 [2]: 744 nM
O=C1O[C@H]([C@@H](O)CO)C(O)=C1O [(+)-Ascorbic acid, reference compound]	–	–	–	–	–	–	–	Antioxidant Activity (% of Control) ROS Scavenge ([2]; 114 μmol/L, reference agent): 14.5 ± 0.6 % of Control and 20.2 ± 0.6 % of Control
O=C(O)/C=C/c1ccccc1 [(E)-Cinnamic acid]	–	–	–	–	104.3 ± 2.3 % of Control	–	108.7 ± 2.2 % of Control	–
C[C@]12C[C@@H](O)[C@@H]3C[C@@]1(O[C@@H]1O[C@H](CO)[C@@H](O)[C@H](O)[C@H]1O)[C@@]3(COC(=O)c1ccccc1)C(=O)O2 [Albiflorin]	–	–	–	–	101.6 ± 2.2 % of Control	–	104.2 ± 1.1 % of Control	AUC0–last [3, 7]: 64.9 ng·h/mL; Tmax [3, 7]: 0.5 h; t1/2 [3, 7]: 1.6 h
N#C[C@H](O[C@@H]1O[C@H](CO[C@@H]2O[C@H](CO)[C@@H](O)[C@H](O)[C@H]2O)[C@@H](O)[C@H](O)[C@H]1O)c1ccccc1 [Amygdalin]	–	–	–	–	102.0 ± 2.1 % of Control	–	106.4 ± 0.5 % of Control	AUC(0-t) ([3]; in vivo, rat plasma, single oral KBGY 2 g/kg, read-out: AUC0–last): 79.9 ng·h/mL; Cmax ([3]; in vivo, rat plasma, single oral KBGY 2 g/kg, read-out: Cmax): 37.7 ng/mL and 82 nM; half-life ([3]; in vivo, rat plasma, single oral KBGY 2 g/kg, read-out: t1/2 (converted)): 0.657 h; Tmax [3, 8]: 0.5 h
O=C/C=C/c1ccccc1 [Cinnamaldehyde]	1 h	51.6 ng·h/mL	11.5 ng/mL and 87 nM	5.21 h	109.8 ± 3.9 % of Control	–	103.8 ± 1.1 % of Control	–
C=C(CC[C@@H](C(=O)O)[C@H]1[C@H](O)C[C@@]2(C)C3=CC[C@H]4C(C)(C)[C@@H](O)CC[C@]4(C)C3=CC[C@]12C)C(C)C [Dehydrotumulosic acid]	–	–	–	–	97.4 ± 3.1 % of Control	–	106.0 ± 0.4 % of Control	AUC(0-t) ([3]; rat plasma, single oral KBGY 2 g/kg, read-out: AUC0–last): 39.5 ng·h/mL; Cmax ([3]; rat plasma, single oral KBGY 2 g/kg, read-out: Cmax): 15.5 ng/mL and 32 nM; half-life ([3]; rat plasma, single oral KBGY 2 g/kg, read-out: t1/2 (converted)): 3.81 h; Tmax ([3]; rat plasma, single oral KBGY 2 g/kg, read-out: tmax): 0.5 h
O=C(O)c1cc(O)c(O)c(O)c1 [Gallic acid]	–	172 ng·h/mL	84.9 ng/mL and 499 nM	0.772 h	74.0 ± 2.5 % of Control	strong anti-ROS activity	14.5 ± 0.7 % of Control	Antioxidant Activity (% of Control) LPO Generation ([1]; 10 μmol/L, more than 100% = no activity, listed as gallic acid): less than 80 % of Control; Inhibition of LPO generation ([1]; 3 and 10 μmol/L, Figure 4): significantly inhibited LPO generation; ROS scavenging activity (% control) ([2]; 0.313 μmol/L): 71.1 % control; IC50 [2]: 954 nM; Tmax [3, 8]: 0.5 h

Further lines, with some results ahead:

Tmax ([3]; rat, in vivo, po, 2 g/kg)	AUC(0-t) ([3]; rat, in vivo, po, 2 g/kg)	Cmax ([3]; rat, in vivo, po, 2 g/kg)	half-life ([3]; rat, in vivo, po, 2 g/kg)	SMILES	Antioxidant Activity (% of Control) LPO Generation [1, 4]	anti-ROS activity ([2]; 10 μmol/L)	Antioxidant Activity (% of Control) ROS Scavenge [2, 6]	other results
0.25 h	–	–	–	COc1cc([C@H]2OC[C@H]3[C@@H]2CO[C@@H]3c2cc(OC)c(O)c(OC)c2)cc(OC)c1O (racemic) [(±)-Syringaresinol]	68.4 ± 3.3 % of Control	strong anti-ROS activity	C.I.	Antioxidant Activity (% of Control) LPO Generation ([1]; 1 μmol/L): 107.4 ± 4.2 % of Control; Antioxidant Activity (% of Control) LPO Generation ([1]; 10 μmol/L, more than 100% = no activity, listed as (±)-syringaresinol): less than 80 % of Control; Antioxidant Activity (% of Control) ROS Scavenge [2, 5]: 39.4 ± 2.4 % of Control; AUC0–last ([3]; rat, in vivo, po, 2 g/kg): 0.0771 ng·h/mL
1 h	479 ng·h/mL	159 ng/mL and 863 nM	0.906 h	COc1c(O)cc(C(=O)O)cc1O [4-O-Methylgallic acid]	105.4 ± 2.5 % of Control	–	86.8 ± 0.2 % of Control	–
2 h	–	–	–	Oc1cc(O)c2c(c1)O[C@H](c1ccc(O)c(O)c1)[C@@H](O)C2 [(+)-Catechin]	95.4 ± 3.9 % of Control	strong anti-ROS activity	7.3 ± 1.1 % of Control	IC50 [2]: 621 nM; AUC0–last ([3]; rat, in vivo, po, 2 g/kg): 65.1 ng·h/mL
6 h	17.1 ng·h/mL	14.4 ng/mL and 99 nM	–	O=C(O)CCCCC(=O)O [Adipic acid]	103.6 ± 2.9 % of Control	–	97.0 ± 0.9 % of Control	–
0.25 h	39.9 ng·h/mL	54.7 ng/mL and 291 nM	–	O=C(O)CCCCCCCC(=O)O [Azelaic acid]	97.9 ± 4.4 % of Control	–	100.4 ± 0.7 % of Control	–
0.5 h	2.91 ng·h/mL	1.03 ng/mL and 3 nM	27.3 h	OC[C@H](Cc1cccc(O)c1)[C@H](CO)Cc1cccc(O)c1 [Enterodiol]	84.9 ± 3.1 % of Control	strong anti-ROS activity	C.I.	Antioxidant Activity (% of Control) LPO Generation ([1]; 1 μmol/L): 95.2 ± 4.4 % of Control; Antioxidant Activity (% of Control) ROS Scavenge [2, 5]: 67.6 ± 2.4 % of Control
4 h	1.33 ng·h/mL	1.07 ng/mL and 4 nM	–	O=C1OC[C@H](Cc2cccc(O)c2)[C@H]1Cc1cccc(O)c1 [Enterolactone]	86.1 ± 0.9 % of Control	strong anti-ROS activity	C.I.	Antioxidant Activity (% of Control) LPO Generation ([1]; 1 μmol/L): 102.1± 2.7 % of Control; Antioxidant Activity (% of Control) ROS Scavenge [2, 5]: 81.6 ± 2.9 % of Control
4 h	5.29 ng·h/mL	1.21 ng/mL and 2 nM	–	C=C(CC[C@@H](C(=O)O)[C@H]1[C@H](O)C[C@@]2(C)C3=C(CC[C@]12C)[C@@]1(C)CC[C@H](OC(C)=O)C(C)(C)[C@@H]1CC3)C(C)C [Pachymic acid]	–	–	–	–
